Test results: PubChem BioAssay (NCI)
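All cell lines were grown in 96-well plates and treated with compound for 48 hours. TGI: total growth inhibition.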

Assays:
Assay in all cases: NCI anticancer screen, dose series, 48 h
[1] = tested on: BT-549 breast
[2] = tested on: TK-10 renal
[3] = tested on: NCI-H522 lung
[4] = tested on: NCI-H226 lung
[5] = tested on: MDA-MB-435
[6] = tested on: SF-268 CNS
[7] = tested on: SN12C renal
[8] = tested on: HCT-15 colon
[9] = tested on: T-47D breast
[10] = tested on: ACHN renal
[11] = tested on: HOP-92 NSCLC
[12] = tested on: SW-620 colon
[13] = tested on: 786-0 renal
[14] = tested on: HS 578T breast
[15] = tested on: U251 CNS
[16] = tested on: SK-OV-3 ovarian
[17] = tested on: NCI-H23 lung
[18] = tested on: A498 renal
[19] = tested on: OVCAR-5 ovarian

Row | Structure (SMILES) | TGI [1] [µM] | TGI [2] [µM] | TGI [3] [µM] | TGI [4] [µM] | TGI [5] [µM] | TGI [6] [µM] | TGI [7] [µM] | TGI [8] [µM] | TGI [9] [µM] | TGI [10] [µM] | TGI [11] [µM] | TGI [12] [µM] | TGI [13] [µM] | TGI [14] [µM] | TGI [15] [µM] | TGI [16] [µM] | TGI [17] [µM] | TGI [18] [µM] | TGI [19] [µM]
1 | O=c1[nH]c2ccc(Cl)cc2o1 | > 100 | > 100 | > 100 | > 100 | > 100 | > 100 | > 100 | > 100 | > 100 | > 100 | > 100 | > 100 | > 100 | > 100 | > 100 | > 100 | > 100 | > 100 | > 100
2 | COC(=O)[C@@H](NC(=O)[C@H](N)Cc1ccc(N(CCCl)CCCl)cc1)C(C)C | 65.3 | 56.7 | 33.1 | 59.2 | 47.5 | 97.1 | > 79.7 | 72.8 | 35.5 | 51.8 | 5.72 | > 77.3 | 49.7 | 77.7 | > 100 | > 100 | 16.8 | 48.5 | > 100
3 | COc1cccc(/C=C2\SC(=S)N(/C=C3\C(=O)Oc4ccccc4C3=O)C2=O)c1O | 55.6 | – | > 100 | > 100 | 75.6 | > 100 | > 100 | > 100 | > 100 | > 100 | – | > 100 | > 100 | 82.3 | > 100 | > 100 | > 100 | 48 | > 100
4 | O=C(Sc1n[nH]c(=O)[nH]c1=O)c1cccc2nc3ccccc3nc12 | > 100 | > 100 | – | > 100 | 29 | > 100 | > 100 | > 100 | > 100 | > 100 | > 100 | > 100 | > 100 | 77.8 | > 100 | > 100 | 26.8 | > 100 | > 100
5 | CC(NP(=O)(c1ccccc1)c1ccccc1)c1ccccc1 (centres undefined) | > 100 | > 100 | > 100 | > 100 | > 100 | > 100 | > 100 | > 100 | > 100 | > 100 | > 100 | > 100 | > 100 | > 100 | > 100 | > 100 | > 100 | > 100 | > 100
6 | Cc1ccc(C)n2c1nc1cc3ccccc3cc12 | > 100 | > 100 | – | > 100 | > 100 | > 100 | > 100 | > 100 | > 100 | > 100 | > 100 | > 100 | > 100 | > 100 | > 100 | > 100 | > 100 | – | > 100
7 | Clc1ccc(C(Cc2ccccc2)c2c(Cl)nc(N3CCNCC3)nc2Cl)cc1 (centres undefined) | 47.4 | 34.3 | 25.9 | 40.7 | 32 | – | 28.8 | 14.5 | 29.6 | 29.9 | 25.7 | 27.7 | 30.1 | 32.6 | 26.9 | 33.2 | 36.8 | 24.8 | 32
8 | C=CCSC1=N/C(=C\c2ccc(OC)cc2)C(=O)N1CC=C | 74.4 | > 100 | > 100 | – | > 100 | > 100 | 62.2 | > 100 | > 100 | > 100 | > 100 | > 100 | > 100 | > 100 | > 100 | > 100 | > 100 | 66.6 | > 100
9 | CCCCCCc1cc2cc(-c3cn4c(n3)sc3ccccc34)c(=O)oc2cc1O | > 100 | > 100 | > 100 | > 100 | > 100 | > 100 | > 100 | > 100 | > 100 | > 100 | > 100 | > 100 | > 100 | > 72.1 | > 100 | > 100 | > 100 | – | > 100
10 | O=C(Cn1c(C(=O)/C=C/c2ccc(Cl)cc2)nc2ccccc21)c1ccc(Cl)cc1 | 55.2 | 98.5 | – | 64.4 | 37.5 | > 100 | 37.3 | 51.8 | > 100 | 72.5 | > 100 | > 100 | 66.8 | 29.1 | 33.4 | > 100 | 77.6 | > 100 | 64.1
11 | C[C@@H](NC(=O)Cn1c(Cl)nc2ccccc21)c1ccccc1 | > 100 | > 100 | > 100 | > 100 | > 100 | > 100 | – | > 100 | > 100 | > 100 | > 100 | > 100 | > 100 | > 100 | > 100 | > 100 | > 100 | > 100 | > 100
12 | Cc1ccc2c(c1)C=CC1(O2)N(c2ccccc2)C(=S)OC1(C)C (centres undefined) | > 100 | > 100 | – | > 100 | > 100 | > 100 | > 100 | > 100 | 20.7 | > 100 | > 100 | > 100 | > 100 | > 100 | > 100 | > 100 | > 100 | > 100 | > 100
13 | CN1C(=O)[C@H](c2c[nH]c3ccccc23)[C@H](c2c[nH]c3ccccc23)C1=O | 55.7 | 61.2 | > 100 | 97.6 | > 77.6 | > 100 | > 100 | > 59.9 | > 100 | > 66.3 | > 67.3 | > 100 | > 91.4 | > 86.3 | > 90.1 | > 100 | > 65.1 | – | > 100
14 | Cc1ccc(C(C)C)c(OCC(=O)N/N=C/c2c[nH]c3ccc(Br)cc23)c1 | 18.7 | 9.15 | 8.17 | – | 2.93 | 23.9 | 13 | 14.9 | 24.8 | 16.5 | 27.8 | 18.6 | 12.6 | 20.2 | 11.1 | 12.7 | 14.2 | 15.5 | 17.6
15 | Cc1cc(S(=O)(=O)NC2=NCCCN2)c(S)cc1Cl | 36.4 | 74.7 | 62.8 | 88.2 | 54.7 | > 100 | > 100 | > 100 | > 100 | > 100 | – | 37.8 | 56.4 | 86.7 | > 100 | > 100 | – | > 100 | > 100
16 | NNC(=O)c1cc([N+](=O)[O-])ccc1NC(=O)C12CC3CC(CC(C3)C1)C2 | > 100 | 59.5 | 15.1 | 40.3 | 48.5 | > 100 | > 100 | 3.42 | 72.2 | 36.1 | 51.7 | > 100 | > 100 | 28.8 | 37.7 | 42.4 | > 100 | – | > 100
17 | COc1ccc2nc3n(c2c1)C(c1c(F)cccc1F)SC3 (centres undefined) | > 100 | > 100 | – | 66.2 | > 100 | > 100 | > 100 | > 100 | > 100 | > 100 | > 100 | > 100 | > 100 | 87.7 | > 100 | > 100 | > 100 | > 100 | > 100
18 | Cc1cc2c(nn1)CCc1c-2no[n+]1[O-] | > 100 | > 100 | > 100 | > 100 | > 100 | > 100 | > 100 | > 100 | > 100 | > 100 | – | > 100 | > 100 | > 100 | > 100 | > 100 | > 100 | – | > 100
19 | C1=Nc2ccc(cc2)-c2ccc(cc2)N=Cc2ccc(cc2)OCc2cccc(n2)COc2ccc1cc2 | > 100 | – | > 100 | > 100 | > 100 | 62.1 | > 100 | > 100 | > 100 | > 100 | > 100 | > 100 | > 100 | 73.2 | > 100 | > 100 | > 100 | > 100 | > 100
20 | O=C1C=C(NCC(c2ccccc2)c2ccccc2)C(=O)c2ncccc21 | 5.09 | 51.5 | 3.57 | 9.71 | 2.84 | 13.8 | 5.16 | 1.34 | 13.4 | 13.4 | 12.9 | – | 15.3 | 12.3 | 11.4 | 47.6 | 5.76 | 9.69 | 10.1
21 | CC1=NN(C(=O)CC(=O)NC(=O)/C=C\c2ccccc2)C(=O)C1N=Nc1ccc([N+](=O)[O-])cc1 (centres undefined) | 83.5 | > 100 | – | – | > 100 | > 100 | > 100 | > 100 | > 100 | > 100 | 97.4 | > 100 | > 100 | > 100 | > 100 | > 100 | > 100 | > 100 | > 100
22 | Nc1n[nH]c2c(C(=O)Nc3ccc(Cl)cc3)c(N)n(N)c(=O)c12 | > 100 | > 100 | > 100 | > 100 | > 100 | > 100 | > 100 | > 100 | > 100 | – | – | > 100 | > 100 | > 100 | > 100 | > 100 | > 100 | > 100 | > 100
23 | N#C/C(=C\c1ccc([N+](=O)[O-])o1)c1n[nH]c(Cc2ccccc2)n1 | 8.46 | 4.15 | 1.57 | 6.04 | 6.92 | 2.91 | 4.03 | – | 4.2 | 4.11 | 5.85 | > 100 | 3.85 | 21 | 10.7 | 16.5 | 2.89 | 14.6 | 3.5
24 | CC1CC(=NC2CCCCC2)Nc2ccccc2N1Cc1ccccc1 (centres undefined) | 18.7 | 25.2 | 13.6 | 27.8 | 13.4 | 17.3 | 22.1 | 19.1 | 20.7 | 22.8 | – | 23 | > 39 | 19.7 | 19.9 | 23.4 | 22.3 | 9.7 | 24
25 | O=CC(O)C(O)C1OC(=O)c2cc(O)c(O)c(O)c2C2=C(O)C(O)=C3OC(=O)c4c(c(O)c(O)c5c4C3C2C(=O)O5)-c2c(cc(O)c(O)c2O)C(=O)OCC1O (centres undefined) | > 100 | – | 86.4 | > 100 | 34.1 | > 100 | 30.4 | > 100 | > 100 | > 100 | 98.2 | 36.3 | 32.2 | > 100 | 70.2 | > 100 | > 100 | > 100 | > 100
26 | CC(=O)O[C@H]1CC[C@H]2[C@@H]3CCC4=C/C(=N/OCCN(C)C)CC[C@]4(C)[C@H]3CC[C@]12C | 27.2 | 27 | 22.7 | 15.7 | 6.42 | 27.5 | 33.7 | 12.8 | 19.5 | 26.2 | – | 23.9 | 22.8 | 34.1 | 26.4 | 24.6 | 25.6 | – | 31.9
